This assay has as its system α-SMA expression in MRC5 cells. Briefly: inhibition of α-SMA expression in MRC5 cells, image screening method. Type of assay: cell-based. Conditions: Homo sapiens; MRC5, compound 10 μM, TGF-β1 5 ng/mL, 72 hours, relative to TGF-β1 alone; read-out: Inhibitory activity (α-SMA expression inhibition). Here is the method:
The ability of the compounds according to the present invention to inhibit the expression of α-SMA, which is a biomarker for pulmonary fibrosis, was evaluated by an image screening method. MRC5 cells were treated with the compound (10 μM) or DMSO under the condition of TGF-31 (5 ng/mL). 72 hours later, the cells were fixed with a 4% formaldehyde solution, treated with a 0.1% Triton-x100 solution, and treated with a 1% BSA solution to mask non-specific binding caused by antibodies. Anti-α-SMA-FITC (Sigma Aldrich) and anti-GAPDH (Cell Signaling Technology) were used as primary antibodies, and anti-mouse-TRITC was used as a secondary antibody. Imaging and analysis of the results were performed using Cytation5_Gen5_Version 3.12.08 (Bio Tek). Relative to the α-SMA expression level when TGF-31 was treated alone, the α-SMA expression level when both the compound and TGF-31 were treated was calculated as the ability of α-SMA expression inhibition of the corresponding compound.

Each structure is given as a SMILES string.

The inhibition is the change of the read-out against control, counted positive when it falls. As to `O=C(NC[C@H]1CCNC1)N1CCN(c2ccccn2)c2ccccc21` [Compound 71, (S)-4-(pyridin-2-yl)-N-(pyrrolidin-3-ylmethyl)-3,4-dihydroquinoxaline-1(2H)-carboxamide], the inhibition at 10 µM is 30 to 50%. Regarding `CC(C)CN1CC[C@H](CNC(=O)N2CCN(c3ccc(F)cc3)c3ccccc32)C1` [Compound 56, (R)-4-(4-fluorophenyl)-N-((1-isobutylpyrrolidin-3-yl)methyl)-3,4-dihydroquinoxaline-1(2H)-carboxamide], the inhibition at 10 µM lay within 30 to 50%. The result for `O=C(N1CCCCC1)N1CCN(C2CCCCC2)c2ccccc21` [Compound 109, (4-cyclohexyl-3,4-dihydroquinoxalin-1(2H)-yl)(piperidin-1-yl)methanone] reads 30 to 50%; that for `O=C(NCc1c[nH]cn1)N1CCN(c2ccc(F)cc2)c2cc(F)ccc21` [Compound 37, N-((1H-imidazol-4-)methyl)-6-fluoro-4-(4-fluorophenyl)-3,4-dihydroquinoxaline-1(2H)-carboxamide], 30 to 50%. The result for `O=C(NCC1CCOCC1)N1CCN(c2ccc(F)cc2)c2ccccc21` [Compound 52, 4-(4-fluorophenyl)-N-((tetrahydro-2H-pyran-4-yl)methyl)-3,4-dihydroquinoxaline-1(2H)-carboxamide] reads 10 to 30%. The figure for `CN1CCC[C@@H]1CNC(=O)N1CCN(c2ccc(F)cc2)c2cc(F)ccc21` [Compound 22, (R)-6-fluoro-4-(4-fluorophenyl)-N-((1-methylpyrrolidin-2-yl)methyl)-3,4-dihydroquinoxaline-1(2H)-carboxamide] is at least 70%; for `CN1CC[C@H](NC(=O)N2CCN(c3ccc(F)cc3)c3cc(F)ccc32)C1` [Compound 9, (S)-6-fluoro-4-(4-fluorophenyl)-N-(1-methylpyrrolidin-3-yl)-3,4-dihydroquinoxaline-1(2H)-carboxamide] it is 50 to 70%.

As for `O=C(NC1CCNCC1)N1CCN(c2ccc(F)cc2)c2ccccc21` [Compound 50, 4-(4-fluorophenyl)-N-(piperidin-4-yl)-3,4-dihydroquinoxaline-1(2H)-carboxamide], the inhibition at 10 µM lay in the range of 30 to 50%. The result for `CN(C)[C@H]1CCN(C(=O)N2CCN(Cc3ccccn3)c3ccccc32)C1` [Compound 97, (S)-(3-(dimethylamino)pyrrolidin-1-yl)(4-(pyridin-2-ylmethyl)-3,4-dihydroquinoxalin-1(2H)-yl)methanone] reads 10 to 30%. On to `CC(C)N1CCC[C@@H]1CNC(=O)N1CCN(c2ccc(F)cc2)c2cc(F)ccc21` [Compound 23, (R)-6-fluoro-4-(4-fluorophenyl)-N-((1-isopropylpyrrolidin-2-yl)methyl)-3,4-dihydroquinoxaline-1(2H)-carboxamide], for which the inhibition at 10 µM is at least 70%. For `CN1CC[C@@H](CNC(=O)N2CCN(c3ccc(F)cc3)c3cc(F)ccc32)C1` [Compound 25, (S)-6-fluoro-4-(4-fluorophenyl)-N-((1-methylpyrrolidin-3-yl)methyl)-3,4-dihydroquinoxaline-1(2H)-carboxamide], the inhibition at 10 µM fell in the range of 50 to 70%. The figure for `O=C(N1CCCCC1)N1CCN(c2ccccc2Cl)c2ccccc21` [Compound 66, (4-(2-chlorophenyl)-3,4-dihydroquinoxalin-1(2H)-yl)(piperidin-1-yl)methanone] is 50 to 70%; for `O=C(N1CCCC1)N1CCN(c2ccccc2Cl)c2ccccc21` [Compound 67] it is 30 to 50%; for `CC(C)N1CC[C@@H](CNC(=O)N2CCN(c3ccc(F)cc3)c3ccccc32)C1` [Compound 59, (S)-4-(4-fluorophenyl)-N-((1-isopropylpyrrolidin-3-yl)methyl)-3,4-dihydroquinoxaline-1(2H)-carboxamide] it is 30 to 50%. The result for `CC(C)N1CC(CNC(=O)N2CCN(c3ccc(F)cc3)c3cc(F)ccc32)C1` [Compound 46, 6-fluoro-4-(4-fluorophenyl)-N-((1-isopropylazetidin-3-yl)methyl)-3,4-dihydroquinoxaline-1(2H)-carboxamide] reads 30 to 50%; that for `O=C(NC1CCNCC1)N1CCN(Cc2ccc(F)cc2)c2ccccc21` [Compound 93, 4-(4-fluorobenzyl)-N-(piperidin-4-yl)-3,4-dihydroquinoxaline-1(2H)-carboxamide], 50 to 70%. As for `O=C(NC[C@H]1CCCN1)N1CCN(c2ccc(F)cc2)c2cc(F)ccc21` [Compound 21, (R)-6-fluoro-4-(4-fluorophenyl)-N-(pyrrolidin-2-ylmethyl)-3,4-dihydroquinoxaline-1(2H)-carboxamide], the inhibition at 10 µM is at least 70%. `CN1CC[C@H](CNC(=O)N2CCN(c3ccc(F)cc3)c3cc(F)ccc32)C1` [Compound 18, (R)-6-fluoro-4-(4-fluorophenyl)-N-((1-methylpyrrolidin-3-yl)methyl)-3,4-dihydroquinoxaline-1(2H)-carboxamide]: the inhibition at 10 µM was in the range of 50 to 70%. The figure for `O=C(NCC1CCNCC1)N1CCN(C(=O)c2ccccc2)c2ccccc21` [Compound 114, 4-benzoyl-N-(piperidin-4-ylmethyl)-3,4-dihydroquinoxaline-1(2H)-carboxamide] is 10 to 30%. The result for `CN1CC[C@H](CNC(=O)N2CCN(c3ccc(F)cc3)c3ccccc32)C1` [Compound 54, (R)-4-(4-fluorophenyl)-N-((1-methylpyrrolidin-3-yl)methyl)-3,4-dihydroquinoxaline-1(2H)-carboxamide] reads 30 to 50%; that for `O=C(NCC1CCNCC1)N1CCN(c2ccc(F)cc2)c2cc(F)ccc21` [Compound 33, 6-fluoro-4-(4-fluorophenyl)-N-(piperidin-4-ylmethyl)-3,4-dihydroquinoxaline-1(2H)-carboxamide], 50 to 70%; that for `O=C(NCC1CCNCC1)N1CCN(c2ccc(F)cc2)c2ccccc21` [Compound 62, 4-(4-fluorophenyl)-N-(piperidin-4-ylmethyl)-3,4-dihydroquinoxaline-1(2H)-carboxamide], 30 to 50%. The result for `CC(C)CN[C@H]1CCN(C(=O)N2CCN(Cc3ccccn3)c3ccccc32)C1` [Compound 96, (S)-(3-(isobutylamino)pyrrolidin-1-yl)(4-(pyridin-2-ylmethyl)-3,4-dihydroquinoxalin-1(2H)-yl)methanone] reads 30 to 50%; that for `CC(C)CN1CCC(CNC(=O)N2CCN(c3ccc(F)cc3)c3ccccc32)CC1` [Compound 64, 4-(4-fluorophenyl)-N-((1-isobutylpiperidin-4-yl)methyl)-3,4-dihydroquinoxaline-1(2H)-carboxamide], at least 70%. As for `O=C(N[C@@H]1CCNC1)N1CCN(Cc2ccc(F)cc2)c2ccccc21` [Compound 91, (R)-4-(4-fluorobenzyl)-N-(pyrrolidin-3-yl)-3,4-dihydroquinoxaline-1(2H)-carboxamide], the inhibition at 10 µM is 50 to 70%.

`CN1CC(CNC(=O)N2CCN(c3ccc(F)cc3)c3cc(F)ccc32)C1` [Compound 45, 6-fluoro-4-(4-fluorophenyl)-N-((1-methylazetidin-3-yl)methyl)-3,4-dihydroquinoxaline-1(2H)-carboxamide]: the inhibition at 10 µM fell in the range of 50 to 70%.

Turning to `CC(C)N1CC[C@H](CNC(=O)N2CCN(c3ccc(F)cc3)c3cc(F)ccc32)C1` [Compound 19, (R)-6-fluoro-4-(4-fluorophenyl)-N-((1-isopropylpyrrolidin-3-yl)methyl)-3,4-dihydroquinoxaline-1(2H)-carboxamide], the inhibition at 10 µM was 50 to 70%.

Turning to `CC(C)CN1CCC(CNC(=O)N2CCN(c3ccc(F)cc3)c3cc(F)ccc32)CC1` [Compound 35, 6-fluoro-4-(4-fluorophenyl)-N-((1-isobutylpiperidin-4-yl)methyl)-3,4-dihydroquinoxaline-1(2H)-carboxamide], the inhibition at 10 µM is at least 70%.

Consider `O=C(N[C@@H]1CCNC1)N1CCN(Cc2ccc(Cl)cc2)c2ccccc21` [Compound 95, (R)-4-(4-chlorobenzyl)-N-(pyrrolidin-3-yl)-3,4-dihydroquinoxaline-1(2H)-carboxamide], for which the inhibition at 10 µM is at least 70%. The result for `O=C(NCC1CC1)N1CCN(c2ccncc2)c2ccccc21` [Compound 74, N-(cyclopropylmethyl)-4-(pyridin-4-yl)-3,4-dihydroquinoxaline-1(2H)-carboxamide] reads 30 to 50%.

As to `CC(C)CC(=O)N1CCN(C(=O)NCC2CCNCC2)c2ccccc21` [Compound 125, 4-(3-methylbutanoyl)-N-(piperidin-4-ylmethyl)-3,4-dihydroquinoxaline-1(2H)-carboxamide], the inhibition at 10 µM fell in the range of 10 to 30%.

For `O=C(NCC1CC1)N1CCN(Cc2ccccn2)c2ccccc21` [Compound 102, N-(cyclopropylmethyl)-4-(pyridin-2-ylmethyl)-3,4-dihydroquinoxaline-1(2H)-carboxamide], the inhibition at 10 µM lay in the range of 30 to 50%. In the case of `CN1CC[C@@H](NC(=O)N2CCN(c3ccc(F)cc3)c3cc(F)ccc32)C1` [Compound 2, (R)-6-fluoro-4-(4-fluorophenyl)-N-(1-methylpyrrolidin-3-yl)-3,4-dihydroquinoxaline-1(2H)-carboxamide], the inhibition at 10 µM is at least 70%.

Regarding `CC(C)N1CCC(CNC(=O)N2CCN(c3ccc(F)cc3)c3ccccc32)CC1` [Compound 63, 4-(4-fluorophenyl)-N-((1-isopropylpiperidin-4-yl)methyl)-3,4-dihydroquinoxaline-1(2H)-carboxamide], the inhibition at 10 µM is 30 to 50%.

These data come from patent US20260265189A1, “NOVEL COMPOUND, AND PHARMACEUTICAL COMPOSITION COMPRISING SAME AS ACTIVE INGREDIENT” (SAPIENSBIO INC., priority 2022, published 2026).
